The structures appear in SMILES notation.

The test concerns the target T1, TGF-beta receptor type-1 (Homo sapiens, UniProt P36897).
T1 sequence (P36897 whole entry): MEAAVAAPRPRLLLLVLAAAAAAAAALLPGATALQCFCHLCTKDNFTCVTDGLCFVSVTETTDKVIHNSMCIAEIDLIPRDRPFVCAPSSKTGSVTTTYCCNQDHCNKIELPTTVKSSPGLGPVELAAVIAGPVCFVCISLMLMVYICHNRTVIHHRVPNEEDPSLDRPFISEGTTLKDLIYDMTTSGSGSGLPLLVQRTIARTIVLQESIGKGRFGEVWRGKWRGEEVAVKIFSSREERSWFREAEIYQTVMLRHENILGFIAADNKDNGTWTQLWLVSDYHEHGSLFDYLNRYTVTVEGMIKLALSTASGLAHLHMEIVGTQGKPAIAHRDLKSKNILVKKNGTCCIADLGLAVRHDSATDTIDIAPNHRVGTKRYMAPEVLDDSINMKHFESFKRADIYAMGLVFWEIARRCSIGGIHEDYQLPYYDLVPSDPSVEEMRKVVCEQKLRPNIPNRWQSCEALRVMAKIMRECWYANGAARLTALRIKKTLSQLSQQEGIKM
Regarding `Cc1cccc(-c2nn3c(c2-c2ccc4c(c2)ncn4C)CCC3)n1`, 1700 nM corresponded to half-maximal inhibition (IC50).
The value for `O=C(O)c1ccc(-c2cc(-c3c[nH]nc3-c3ccccn3)ccn2)cc1` was 27 nM; that for `c1ccc(-c2n[nH]cc2-c2ccnc(-c3ccc(CNC4CCCOC4)cc3)c2)nc1` (stereo unspecified) was 47 nM.
Next, `CCc1[nH]c(-c2ccc(OC)cc2)nc1-c1ccncc1` [SB-202474]: 30000 nM.
Next, `CN(C)CCNC(=O)Nc1ccc2c(-c3c(-c4ccccn4)nn4c3CCC4)ccnc2c1`: 18 nM; `O=C(CCO)Nc1ccc2c(-c3c(-c4ccccn4)nn4c3CCC4)ccnc2c1`: 32 nM; `Fc1ccc(C2C(c3ccncc3)NC3SCCN32)cc1` (stereo unspecified): 50000 nM.
With `C#Cc1ccc(CNc2nc(-c3ccc4c(c3)OCO4)c(-c3cccc(C)n3)[nH]2)cc1`, the IC50 turned out to be 153 nM.
As to `Nc1nc(-c2cccc(Cl)n2)c(-c2ccnc3ccccc23)s1`, the midpoint of inhibition, the IC50, lay at 1780 nM.
The value for `CCc1cccc(-c2nn3c(c2-c2ccnc4ccccc24)CCC3)n1` was 71 nM; that for `Nc1ccc2c(-c3c(-c4ccccn4)nn4c3CCC4)ccnc2c1` was 59 nM.
The value for `CCSc1ccc2c(-c3c(-c4ccccn4)nn4c3CCC4)ccnc2c1` was 110 nM; that for `Cc1cccc(-c2nn3c(c2-c2ccnc4cc(Cl)ccc24)CCC3)n1` was 48 nM.
As to `Cc1cccc2ccc(-c3sc(N)nc3-c3ccccn3)nc12`, it took 30 nM to reach half-maximal inhibition (IC50).
Compound `CCc1cccc(-c2[nH]c(CNc3ccc(C(N)=O)cc3)nc2-c2ccc3c(c2)OCO3)n1` registered an IC50 of 46 nM.
In the case of `C#Cc1ccc(NCc2nc(-c3ccc4c(c3)OCO4)c(-c3cccc(C)n3)[nH]2)cc1`, the IC50 came out at 174 nM.
`Nc1nc(-c2ccc(F)cc2)c(-c2ccc3ncccc3n2)s1` [GW785804X] displayed a half-inhibitory concentration (IC50) of 11 nM. Against the preceding compound, the IC50 is about 16-fold lower.
As for `CN(C)CCCNC(=O)Nc1ccc2c(-c3c(-c4ccccn4)nn4c3CCC4)ccnc2c1`, the IC50 was 255 nM.
The compound `c1ccc(-c2n[nH]cc2-c2ccc3ncccc3n2)nc1` returned an IC50 of 19 nM.
The value for `Cc1cccnc1-c1nc(N)sc1-c1ccc2ncccc2n1` was 6 nM; that for `C#Cc1cccc(NCc2nc(-c3ccc4nccnc4c3)c(-c3cccc(CC)n3)[nH]2)c1` was 119 nM; that for `Cc1cccc(-c2[nH]c(CNc3ccc(C#N)cc3)nc2-c2ccc3c(c2)OCO3)n1` was 46 nM.
The value for `CN(C)CCCc1cccc(-c2cc(-c3c[nH]nc3-c3ccccn3)ccn2)c1` was 15 nM; that for `c1ccc(-c2nn3c(c2-c2ccnc4ccccc24)CCC3)nc1` was 104 nM.
Next, `CN(C)CC(=O)Nc1ccc2c(-c3c(-c4ccccn4)nn4c3CCC4)ccnc2c1`: 64 nM.
For the compound `CC(=O)Nc1ccc2c(-c3c(-c4ccccn4)nn4c3CCC4)ccnc2c1`, the IC50 amounted to 87 nM.
Next, `CN(C)CCCn1cnc2cc(-c3c(-c4ccccn4)nn4c3CCC4)ccc21`: 398 nM; `COCCC(=O)Nc1ccc2c(-c3c(-c4ccccn4)nn4c3CCC4)ccnc2c1`: 34 nM; `O=C(Nc1ccc2c(-c3c(-c4ccccn4)nn4c3CCC4)ccnc2c1)OCCO`: 79 nM.
The value for `Cc1cccc(-c2[nH]c(NCc3ccc(C#N)cc3)nc2-c2ccc3c(c2)OCO3)n1` was 24 nM.
The value for `COC(=O)Nc1ccc2c(-c3c(-c4ccccn4)nn4c3CCC4)ccnc2c1` was 40 nM; that for `Nc1nc(-c2cccc(Cl)c2)c(-c2ccc3ncccc3n2)s1` [GW780159X] was 13 nM.
For the compound `Cc1cccc(-c2[nH]c(CNc3ccc(C(N)=O)cc3)nc2-c2ccc3c(c2)OCO3)n1`, 21 nM corresponded to half-maximal inhibition (IC50).
`CCOc1ccc2c(-c3c(-c4cccc(C)n4)nn4c3CCC4)ccnc2c1` returned an IC50 of 88 nM. This IC50 lies about 4.2-fold higher than the previous one.
`Fc1ccc(-c2nn3c(c2-c2ccnc4ccccc24)CCC3)nc1` displayed an IC50 of 151 nM.
As for `CCS(=O)(=O)c1ccc2c(-c3c(-c4ccccn4)nn4c3CCC4)ccnc2c1`, the midpoint of inhibition, the IC50, lay at 9290 nM.

As a reminder, the IC50 is the midpoint of a concentration-inhibition curve. Read a low IC50 as greater potency.

The record behind these values is ChEMBL document CHEMBL1155322, “Pharmacophore modeling and virtual screening for the discovery of new transforming growth factor-beta type I receptor (ALK5) inhibitors” (Eur J Med Chem, 2009).
